In patent US4448730A, “Hydroxybenzohydroxamic acids, benzamides and esters and related compounds as ribonucleotide reductase inhibitors” (priority 1982, dated 1984):
“And” between values parts separate entries of the source, which are not always exact repeats. Identical values can stand only once. Like-named read-outs stand apart in the source and are kept apart here.

Legend:
ribonucleotide reductase = target: T1, ribonucleotide reductase (Rattus norvegicus, UniProt Q4KLN6); assay: Inhibition of ribonucleotide reductase (conversion of CDP to dCDP), enzyme partially purified from Novikoff hepatoma; type: biochemical; conditions: for IC50: CDP to dCDP, 40 min at 30° C, pH 7.5, enzyme from Novikoff hepatoma, read-out: ID50 (inhibitory dose which inhibits ribonucleotide reductase by 50%); for Inhibitory Potency for ribonucleotide reductase: relative to hydroxyurea, given an arbitrary value of 1.0
T1 construct: partially purified from Novikoff hepatoma; from tissue; host or cells: Novikoff hepatoma (rat tumour), partially purified enzyme
T1 sequence (Q4KLN6 1-390): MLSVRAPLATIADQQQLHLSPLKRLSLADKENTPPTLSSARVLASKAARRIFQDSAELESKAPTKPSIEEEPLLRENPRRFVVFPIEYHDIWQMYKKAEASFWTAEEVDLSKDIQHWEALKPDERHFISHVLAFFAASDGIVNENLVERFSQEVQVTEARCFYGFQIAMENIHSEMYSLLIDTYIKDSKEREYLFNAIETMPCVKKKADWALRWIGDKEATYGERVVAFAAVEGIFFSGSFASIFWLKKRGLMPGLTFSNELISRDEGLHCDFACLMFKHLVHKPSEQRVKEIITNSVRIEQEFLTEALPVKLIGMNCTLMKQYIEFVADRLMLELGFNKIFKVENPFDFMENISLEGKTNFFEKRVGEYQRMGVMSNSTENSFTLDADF
Text: (§1) Table 2 gives ribonucleotide reductase data for certain compounds of formula I. In the table, column 1 gives the substitution pattern in the benzene ring, column 2, the R^1 group, column 3, the ID50 (inhibitory dose in micromolar concentration which inhibits ribonucleotide reductase by 50%), column 4, the average percent (± standard error) increase in the life span (ILS) of 8 treated mice inoculated with L1210 leukemia compared with 8 control mice also inoculated with L1210. The daily dose level of the drug which was administered for 8 days is indicated in column 5. Table 3 gives the relative potency of the compounds represented by formula I above as inhibitors of ribonucleotide reductase compared to hydroxyurea whose potency was given an arbitrary value of 1.0. In table 3, column 1 gives the name of the compound and column 2 the relative inhibitory potency of each of the compounds of column 1.
In the above determination of ID50 's in Table 3, ribonucleotide reductase is partially purified from Novikoff hepatoma by a procedure similar to that set forth by Elford et al. J. Biol. Chem. 245, 5228 (1970). The activity of the enzyme was measured by a slightly modified assay procedure originally developed by Reichard et al. id, 236, 1150 […]. This procedure measures the conversion of CDP to dCDP. The assay mixture (0.34 ml.) contains 3 μCi of [^3 H] CDP (specific activity […]), 3.3 μmole ATP, 5.9 μmoles magnesium chloride, 8.8 μmoles Hepes buffer at pH=7.5, 15 μmoles dithiothreitol and enzyme protein between 0.4 and 1.3 mg. Incubation was provided for forty minutes at 30° C. Ion exchange chromatography employing Dowex 50 (H^+) resin is used to separate the product from the substrate. The inhibitors were dissolved in water and a mixture of water and up to 1 % ethanol or 2% dimethylsulfoxide, neither one of which inhibited the enzyme at these concentrations. Each inhibitor was tested at a minimum of three concentrations and the active compounds reassayed at least one additional time. ID50 's in μmoles were estimated from graphs summarizing results for each compound.

L1210 leukemia = L1210 leukemia in mice, increase in life span (Table 2); type: in vivo; conditions: Mus musculus, L1210, 192 h, read-out: ILS, average percent (± standard error) increase in life span
Text: As stated above, the compounds represented by formula I above have the ability to inhibit ribonucleotide reductase, an enzyme involved in the reductive conversion of ribonucleotides to deoxyribonucleotides. This enzymatic reaction is a rate controlling step in the biosynthetic pathway leading to DNA and cell replication. In general, the ribonucleotide reductase level is closely correlated with cellular replication.
as §1

L-1210 Leukemia [1] = type: in vivo, mice; conditions: once or twice daily for 9-10 days
Procedure: (§3) All compounds were administered once or twice daily for 9-10 days starting 24 hours after inoculation with the tumor.

Lewis Lung = assay: Activity vs. Lewis Lung (Table 5); type: in vivo, mice; conditions: once or twice daily for 9-10 days
Procedure: as §3

CA-755 adenocarcinoma = assay: Activity vs. CA-755 adenocarcinoma (Table 7); type: in vivo, mice; conditions: once or twice daily for 9-10 days
Procedure: as §3

P388 Leukemia = assay: Activity vs. P388 Leukemia (Table 8); type: in vivo, mice; conditions: once or twice daily for 9-10 days
Procedure: as §3

CX-1 colon xenograft = assay: Activity against CX-1 colon xenograft; type: in vivo
Procedure: In addition, the compound 3,4-dihydroxybenzenehydroxamic acid was active against CX-1 colon xenograft using the following protocol:
0% tumor inhibition at 800 mg/kg dose level every fourth day,
3,4,5-trihydroxybenzohydroxamic acid gave the following results against the same tumor using the same protocol.

P-388 leukemia = assay: Prolongation of life of mice inoculated with P-388 leukemia, dosing every fifth day; type: in vivo; conditions: 50-400 mg/kg every fifth day
CD8F mammary tumor = assay: Inhibition of growth of CD8F mammary tumor; type: in vivo
Text: (§2) The same two compounds were effective in inhibiting the growth of the following transplanted tumors--B16 melanoma, M-1 human breast xenograft, LX-1 human lung xenograft, CD8F mammary tumor and colon 38 tumor--as follows: […]

colon 38 tumor = assay: Inhibition of growth of colon tumor C8 (colon 38); type: in vivo, mice
Text: as §2

B16 melanoma = assay: B16 melanoma, increase in survival; type: in vivo, mice
Text: as §2

[2] = system: M-1 human breast xenograft; assay: Inhibition of growth of M-1 human breast xenograft; type: in vivo, mice
Text: as §2

L-1210 Leukemia [3] = type: in vivo, mice
Procedure: In a series of studies against L-1210 leukemia, in addition to those studies set forth in Table 2 and 4, 3,4-dihydroxybenzohydroxamic acid gave the following increases in survival times at the dose levels specified. Drug was administered daily for nine days.
Similar data for 3,4,5-trihydroxybenzohydroxamic acid are as follows: […]

L-5563 lymphoma = assay: Activity vs. L-5563 lymphoma (Table 6); conditions: once or twice daily for 9-10 days
Procedure: as §3

[4] = system: LX-1 human lung xenograft; assay: Inhibition of growth of LX-1 human lung xenograft; type: in vivo, mice
Text: as §2

L-1210 Leukemia [5] = type: in vivo, mice; remark: listed apart in the source
Text: The above data clearly show the enhanced anti-tumor activity of trihydroxybenzohydroxamic acid where the hydroxy groups are vicinal but no hydroxyl is ortho. Similar data are available for the vicinal dihydroxybenzohydroxamic acids with and without an ortho-hydroxy substituent in an L-1210 leukemic test in mice as follows: […]

L-1210 Leukemia [6] = assay: Direct side-by-side comparison with L-1210 leukemia; type: in vivo, mice
Text: In a direct side-by-side comparison with L-1210 leukemia, the following results were obtained.

[7] = system: DNA synthesis in Ehrlich ascites tumor cells; conditions: Gale and Hynes 1968; in vitro; cited from earlier work
[8] = system: RNA and protein synthesis in Ehrlich ascites tumor cells; conditions: Gale and Hynes 1968; cited from earlier work

In the case of `O=C(NO)c1cc(O)c(O)c(O)c1` [3,4,5-trihydroxybenzohydroxamic acid], the IC50 (ribonucleotide reductase) is reported as 10 µM, the “Inhibitory Potency for ribonucleotide reductase” value (ribonucleotide reductase) is reported as 50 and the ILS at 400 mg/kg (L1210 leukemia; 400 mg/kg daily for 8 days) is reported as 53 ± 19%. The “% increase in survival time” value (L-1210 Leukemia [1]; 75 mg/kg) was 60%, the “% increase in survival time” value (L-1210 Leukemia [1]; 100 mg/kg, listed as gallohydroxamic acid) was 58% and 55% and the “% increase in survival time” value (L-1210 Leukemia [1]; 120 mg/kg) was 54%. For the same molecule, the “% tumor inhibition” value (Lewis Lung; 100 mg/kg) was 40%, the “% inhibition” value (CA-755 adenocarcinoma; 100 mg/kg) was 28% and the “% inhibition” value (CA-755 adenocarcinoma; 150 mg/kg) was 11%. For the same molecule, the “% inhibition” value (CA-755 adenocarcinoma; 175 mg/kg) was 29%, the “% Prolongation” value (P388 Leukemia; 200 mg/kg) was 62% and the “% Prolongation” value (P388 Leukemia; 225 mg/kg) was 79%. For the same molecule, the tumor inhibition (CX-1 colon xenograft; 200 mg/kg every fourth day) was 17%, the tumor inhibition (CX-1 colon xenograft; 400 mg/kg every fourth day) was 40% and the tumor inhibition (CX-1 colon xenograft; 800 mg/kg every fourth day) was 44%. The prolongation of life (P-388 leukemia) was 23-53%, the inhibition (CD8F mammary tumor; 300 mg/kg) was 0% and the inhibition (CD8F mammary tumor; 600 mg/kg) was 22%. The inhibition (colon 38 tumor; 50 mg/kg) was 20%, the inhibition (colon 38 tumor; 100 mg/kg) was 30% and the inhibition (colon 38 tumor; 200 mg/kg) was 32%. The inhibition (colon 38 tumor; 400 mg/kg) was 17%, the inhibition (colon 38 tumor; 800 mg/kg) was 60% and the increase in survival (B16 melanoma; 100 mg/kg) was 14%. The increase in survival (B16 melanoma; 200 mg/kg) was 18%, the inhibition ([2]; 200 mg/kg) was 69% and the inhibition ([2]; 400 mg/kg) was 21%. For the same molecule, the inhibition ([2]; 800 mg/kg) was 56%, the inhibition ([2]; 1600 mg/kg) was 41% and the “% increase in survival” value (L-1210 Leukemia [3]; 50 mg/kg daily for nine days) was 27% and 29%. For the same molecule, the “% increase in survival” value (L-1210 Leukemia [3]; 200 mg/kg daily for nine days) was 54% and 56%, the “% increase in survival” value (L-1210 Leukemia [3]; 400 mg/kg daily for nine days) was 0% and 4% and the “% increase in survival time” value (L-1210 Leukemia [3]; dose 800, similar data (daily for nine days)) was 16%. The “% inhibition” value (L-5563 lymphoma; 100 mg/kg) was 41%.

For `O=C(NO)c1ccc(O)c(O)c1` [3,4-dihydroxybenzohydroxamic acid], the IC50 (ribonucleotide reductase) was 30 µM, the “Inhibitory Potency for ribonucleotide reductase” value (ribonucleotide reductase) was 17 and the ILS at 600 mg/kg (L1210 leukemia; 600 mg/kg daily for 8 days) was 103 ± 15%. For the same molecule, the survivors (L-1210 Leukemia [1]; 200 mg/kg) was 4 survivors, the “% increase in survival time” value (L-1210 Leukemia [1]; 225 mg/kg) was 65% and the “% tumor inhibition” value (Lewis Lung; 200 mg/kg) was 14%. The “% tumor inhibition” value (Lewis Lung; 400 mg/kg) was 31-58%, the “% inhibition” value (CA-755 adenocarcinoma; 100 mg/kg) was 16% and the “% inhibition” value (CA-755 adenocarcinoma; 200 mg/kg) was 25% and 36%. The “% inhibition” value (CA-755 adenocarcinoma; 300 mg/kg) was 52%, the “toxic (in column % inhibition)” value (CA-755 adenocarcinoma; 300 mg/kg) was “toxic” and the “% Prolongation” value (P388 Leukemia; 200 mg/kg) was 51%. For the same molecule, the “% Prolongation” value (P388 Leukemia; 225 mg/kg) was 89%, the tumor inhibition (CX-1 colon xenograft; 200 mg/kg every fourth day) was 48% and the tumor inhibition (CX-1 colon xenograft; 400 mg/kg every fourth day) was 14%. For the same molecule, the tumor inhibition (CX-1 colon xenograft; 800 mg/kg every fourth day) was 0%, the “activity against CX-1 colon xenograft (in words)” value (CX-1 colon xenograft; every fourth day) was “active” and the inhibition (CD8F mammary tumor; 300 mg/kg) was 52%. For the same molecule, the inhibition (CD8F mammary tumor; 600 mg/kg) was 11%, the inhibition (colon 38 tumor; 50 mg/kg) was 12% and the inhibition (colon 38 tumor; 100 mg/kg) was 8%. For the same molecule, the inhibition (colon 38 tumor; 200 mg/kg) was 15%, the inhibition (colon 38 tumor; 400 mg/kg) was 52% and the increase in survival (B16 melanoma; 200 mg/kg) was 24-25%. For the same molecule, the increase in survival (B16 melanoma; 400 mg/kg) was 41%, the inhibition ([4]; 200 mg/kg) was 0% and the inhibition ([4]; 400 mg/kg) was 26%. The inhibition ([4]; 800 mg/kg) was 27%, the “% increase in survival” value (L-1210 Leukemia [3]; 25 mg/kg daily for nine days) was 15% and the “% increase in survival” value (L-1210 Leukemia [3]; 50 mg/kg daily for nine days) was 25%. For the same molecule, the “% increase in survival” value (L-1210 Leukemia [3]; 100 mg/kg daily for nine days) was 37%, the “% increase in survival” value (L-1210 Leukemia [3]; 164 mg/kg daily for nine days) was 21% and the “% increase in survival” value (L-1210 Leukemia [3]; 196 mg/kg daily for nine days) was 52%. For the same molecule, the “% increase in survival” value (L-1210 Leukemia [3]; 200 mg/kg daily for nine days) was 67%, the “% increase in survival” value (L-1210 Leukemia [3]; 235 mg/kg daily for nine days) was 39% and the “% increase in survival” value (L-1210 Leukemia [3]; 245 mg/kg daily for nine days) was 45% and 68%. The “% increase in survival” value (L-1210 Leukemia [3]; 307 mg/kg daily for nine days) was 67% and 76%, the “% increase in survival” value (L-1210 Leukemia [3]; 336 mg/kg daily for nine days) was 55% and the “% increase in survival” value (L-1210 Leukemia [3]; 384 mg/kg daily for nine days) was 62% and 85%. For the same molecule, the “% increase in survival” value (L-1210 Leukemia [3]; 400 mg/kg daily for nine days) was 67%, the “% increase in survival” value (L-1210 Leukemia [3]; 480 mg/kg daily for nine days) was 106% and 87% and 67% and the “% increase in survival” value (L-1210 Leukemia [3]; 600 mg/kg daily for nine days) was 54% and 64%. For the same molecule, the “% increase in survival time” value (L-1210 Leukemia [5]; 100 mg/kg) was 25%, the “% increase in survival time” value (L-1210 Leukemia [5]; 300 mg/kg) was 56% and the “% increase in survival time” value (L-1210 Leukemia [5]; 453 mg/kg) was 125%. The “% increase in survival time” value (L-1210 Leukemia [5]; 500 mg/kg) was 84%, the “% increase in survival time” value (L-1210 Leukemia [5]; 543 mg/kg) was 77% and the “% increase in survival time” value (L-1210 Leukemia [5]; 600 mg/kg) was 94% and 103%. The “% increase in survival time” value (L-1210 Leukemia [5]; 643 mg/kg) was 65%, the “% increase in survival time” value (L-1210 Leukemia [6]; 250 mg/kg) was 32% and the “% increase in survival time” value (L-1210 Leukemia [6]; 500 mg/kg) was 70%. For the same molecule, the “% inhibition” value (L-5563 lymphoma; 200 mg/kg) was 24%.

In the case of `Nc1cccc(C(=O)NO)c1` [3-Aminobenzohydroxamic acid], the “inhibition of / selectivity against DNA synthesis (in words)” value [7] is listed as “completely inhibiting DNA synthesis” and the “depression of RNA and protein synthesis” value [8] is listed as 50%.
